Test results: patent US6357163B1, “Use of nucleic acid analogues in diagnostics and analytical procedures” (priority 1991, dated 2002)
Where “and” joins values, the source holds several entries; their conditions need not be identical. Identical values can stand only once.

Legend:
[1] = tested on: 5′-AAA-AAA-AAA-AAA-AAA; experiment: Melting temperature (Tm) of hybrid with oligodeoxyribonucleotide; type: binding; settings: oligo 14 (5′-AAA-AAA-AAA-AAA-AAA); 10 mM phosphate, 1 mM EDTA, 140 mM NaCl, pH 7.2
Excerpt: (§1) 2. Upon formation of DNA duplexes (dsDNA) from single strand DNA, the extinction coefficient decreases (hypochromicity). Thus, the denaturing of DNA can be followed by measuring changes in the absorbance, for example, as a function of […], the temperature where 50% of a duplex has disappeared to give single strands.
(§2) Duplexes were formed from the single-stranded oligodeoxyribonucleotides and the PNAs listed below. Typically 0.3 OD260 of the T-rich strand was hybridized with 1 equivalent of the other strand by heating to 90° C. for 5 min, cooling to room temperature and kept for 30 min and finally stored in a refrigerator at 5° C. for at least 30 min. The buffers used were all 10 mM in phosphate and 1 mM in EDTA. The low salt buffer contained no sodium chloride, whereas the medium salt buffer contained 140 mM NaCl and the high salt buffer 500 mM NaCl. The pH of all the buffers was 7.2. The melting temperature of the hybrids were determined on a Gilford Response apparatus. The following extinction coefficients were used A: 15.4 ml/μmol.cm; T: 8.8; G: 11.7 and C: 7.3 for both normal oligonucleotides and PNA. The melting curves were recorded in steps of 0.5 C/min. The Tm were determined from the maximum of the 1st derivative of the plot of A260 vs temperature.
14. 5′-AAA-AAA-AAA-AAA-AAA (See SEQ ID NO:20)

[2] = tested on: 5′-AAG-AAG-AAA-A; experiment: as above; type: binding; settings: oligo 5 (5′-AAG-AAG-AAA-A); 10 mM phosphate, 1 mM EDTA, 140 mM NaCl, pH 7.2
Excerpt: as §1, §2
5. 5′-AAG-AAG-AAA-A (See SEQ ID NO:9)

[3] = tested on: (dA)10; experiment: as above; type: binding; settings: for Tm, Medium Salt / Tm, High Salt / Tm, Low Salt: oligo 2 (5′-AAA-AAA-AAA-A), 10 mM phosphate, 1 mM EDTA, pH 7.2; for Tm, Medium Salt: 140 mM NaCl; for Tm, High Salt: 500 mM NaCl; for Tm, Low Salt: no sodium chloride; for Tm: DNA (dA)10
Excerpt: as §1, §2

[4] = tested on: (dA)5(dG)(dA)4; experiment: as above; type: binding; settings: oligo 4 (5′-AAA-AAG-AAA-A), 10 mM phosphate, 1 mM EDTA, pH 7.2; for Tm, Medium Salt: 140 mM NaCl; for Tm, High Salt: 500 mM NaCl; for Tm, Low Salt: no sodium chloride
Excerpt: as §1, §2

[5] = tested on: 5′-AAA-AGA-AGA-A; experiment: as above; type: binding; settings: oligo 7 (5′-AAA-AGA-AGA-A); 10 mM phosphate, 1 mM EDTA, 140 mM NaCl, pH 7.2
Excerpt: as §1, §2
7. 5′-AAA-AGA-AGA-A (See SEQ ID NO:13)

[6] = tested on: 32P-end-labelled dT10; experiment: Gel retardation (PAGE), control experiment; type: binding; settings: same conditions
Method: (§3) 1. As shown in Example 56 below PNA-oligonucleotide complexes will migrate slower than the single stranded oligonucleotide upon electrophoresis in polyacrylamide gels. Consequently, such experiments were performed with Acr^1-(Taeg)10-Lys-NH2 and ^32P-end-labelled dA10.
(§4) In FIG. 11a and in FIG. 11b, the 5′-^32P-labelled oligonucleotide 1 is 5′-GATCCA10G. This was incubated in the absence (lanes 1 and 4) or presence of Acr-T10-Lys-NH2 (in lanes 2 and 5, 25 pmol; lanes 3 and 6, 75 pmol) and also in the absence (lanes 1 to 3) or presence (lanes 4 to 6) of “oligo-2” which was 5′-GATCCT10G. 5′-^32P-labelled oligo 2 was incubated in the absence (lane 7) or presence of the same PNA (lane 8, 25 pmol; lane 9, 75 pmol) and analysed by PAGE as described above in detail.
(§5) The results in FIG. 11a show retardation of the ssDNA as it is hybridised by PNA (lanes 1 to 3) and the ability of PNA to compete with a DNA oligonucleotide, for labelled complementary oligonucleotide (lanes 4 to 6). The intensity of the band attributable to dsDNA grows faster as the PNA concentration is raised and is replaced by a band representing the slower moving PNA-DNA hybride.

[7] = tested on: 32P-end-labelled dA10; experiment: Binding to dA10, gel retardation (PAGE); settings: for binding to the corresponding dA10: summary statement, illustrated by gel retardation and Tm
Method: as §3
The sample was cooled in ice (15 min) and analyzed by gel electrophoresis in polyacrylamide (PAGE). To 10 μl of the sample was added 2 μl 50% glycerol, 5μl TBE (TBE=90 mM Tris-borate, 1 mM EDTA, pH 8.3), and the sample was analysed by PAGE (15% acrylamide, 0.5% bisacrylamide) in TBE buffer at 4° C. A 10 μl portion of the sample was lyophilized and redissolved in 10 μl 80% formamide, 1 TBE, heated to 90° C. (5 min), and analyzed by urea/PAGE (15% acrylamide, 0.5% bisacrylamide, 7 M urea) in TBE. [^32P]-containing DNA bands were visualized by autoradiography using intensifying screens and Agfa Curix RPI X-ray films exposed at −80° C. for 2 h.
Oligonucleotides were synthesized on a Biosearch 7500 DNA synthesizer, labelled with γ[^32P]-ATP (Amersham, 5000 Ci/mmol) and polynucleotide kinase, and purified by PAGE using standard techniques (Maniatis et al. (1986): A laboratory manual, Cold Spring Harbor Laboratories).
as §4
as §5, with “hybride. […]” for “hybride.”

[8] = tested on: A9G (5′-TCGACAAAAAGAAAAG); experiment: Binding of 5′-32P-endlabeled oligonucleotide to PNA-Sepharose; settings: DNA A9G; PNA on solid support (CNBr-Sepharose); 16 hr at 20° C. in TE
[9] = tested on: A8G2 (5′-GAAGAAGAAACTGAC); experiment: as above; settings: DNA A8G2; PNA on solid support (CNBr-Sepharose); 16 hr at 20° C. in TE
[10] = tested on: A10 (5′-GATCCAAAAAAAAAAG); type: binding
[11] = tested on: mix (5′-GATCACGCGTATACGCGT); experiment: Binding of 5′-32P-endlabeled oligonucleotide to PNA-Sepharose; settings: DNA mix; PNA on solid support (CNBr-Sepharose); 16 hr at 20° C. in TE
[12] = tested on: 32P-dsDNA (A10/T10) target, pT10 fragment; experiment: Stability of PNA-dsDNA complexes; type: binding; settings: PNA bound to A10/T10 dsDNA target; heated 10 min with competing GATCCA10G, S1 nuclease
Method: Complexes between PNA-Tn and ^32P-dsDNA (A10/T10) target were formed (60 min, 37° C.). The complexes were then incubated at the desired temperature in the presence of excess oligo-dA10 for 10 min, cooled to RT and probed with KMnO4.
A mixture of 200 cps ^32P-pT10 fragment (as in Example 65), 0.5 μg calf thymus DNA and 300 ng of the desired PNA (either T10-LysNH2, T8-LysNH2 or T6-LysNH2) was incubated in 100 μl 200 mM NaCl, 50 mM Na-acetate, pH 4.5, 1 mM ZnSO4 for 60 min at 37° C. A 2 μg portion of oligonucleotide GATCCA10G was added to compete with the PNA for the labelled oligonucleotide and each sample was heated for 10 min at the temperature indicated, cooled in ice for 10 min and warmed to 20° C. 50 U of S1 nuclease was added and the quantity of radio-activity liberated as single nucleotides was measured.

[13] = tested on: 5′-AAA-AAA-AA; experiment: Melting temperature (Tm) of hybrid with oligodeoxyribonucleotide; type: binding; settings: oligo 1 (5′-AAA-AAA-AA), 10 mM phosphate, 1 mM EDTA, pH 7.2
Excerpt: as §1, §2
1. 5′-AAA-AAA-AA (See SEQ ID NO:12)

[14] = tested on: RNA-A (poly rA); experiment: Melting of PNA-RNA hybrid; type: binding; settings: hybrid with RNA-A (poly rA); cannot be measured
Method: (§6) The hybrid formed between RNA-A (poly rA) and PNA-T10-Lys-NH2 melts at such high temperature that it cannot be measured (>90 C). […] Thereafter the sample is heated to 90° C. for 5 min, cooled to room temperature and kept at this temperature for 30 minutes and finally stored at 5° C. for 30 min.

[15] = tested on: RNA-A; experiment: Drop in A260 on mixing PNA with RNA; type: binding
Method: as §6

[16] = tested on: RNA-G; experiment: Drop in A260 on mixing PNA with RNA; type: binding
Method: as §6

[17] = tested on: RNA-C; experiment: Drop in A260 on mixing PNA with RNA; type: binding
Method: as §6

[18] = tested on: RNA-U; experiment: Drop in A260 on mixing PNA with RNA; type: binding
Method: as §6

[19] = tested on: A10 target in plasmid pA10KS / pT10KS, transcription by RNA polymerase; experiment: Inhibition of transcription by PNA; type: biochemical
Method: RNA transcripts were visualized by autoradiography. The plasmid used was: Lane 1 to 5; pA10KS (the A10 target is positioned on the transcribed strand). Lane 6 to 10: pT10KS (the A10 target is positioned on the non-transcribed strand). The plasmid was treated with the following restriction enzymes prior to the experiment: Lanes 1, 4, 6 and 9: PyuII; lanes 2, 5, 7 and 10: Xha I; lanes 3 and 8: BamHI. […] If the PNA is bound to the non-transcribed strand of the plasmid, transcription is not arrested.

[20] = A260 before mixing 0.600, heated to 90° C. for 5 min, cooled

5′-TTT-TTT-TTT-TTT-TTT [Oligo 13]
Tm, Medium Salt [1]: 39.0 °C

Ac-TTT-TTT-TTT-T-Lys-NH2 [f]
Tm, Medium Salt [2]: 46.5 °C
Tm, Medium Salt [3]: 74 °C
Tm, Medium Salt [4]: 62.0 °C
Tm, Medium Salt [5]: 43.5 °C

Acr-TTT-TTT-TTT-T-Lys-NH2 [e]
migration of 32P-end-labelled dT10 in polyacrylamide gel [6]: no retardation
migration of 32P-end-labelled dA10 in polyacrylamide gel ([7]; native and denaturing gel conditions): retarded migration
binding to the corresponding dA10 [7]: very efficient binding
Tm, Medium Salt [3]: 86.0 °C
Tm, High Salt [3]: ˜90 °C
Tm, Low Salt [3]: 84.5 °C

TTC-TTC-TTT-T-Lys-NH2 [T8C2]
% Binding of 32P-oligo to PNA-Sepharose [8]: 52%
% Binding of 32P-oligo to PNA-Sepharose [9]: 42%
% Binding of 32P-oligo to PNA-Sepharose [10]: 15%
% Binding of 32P-oligo to PNA-Sepharose [11]: 14%

TTT-TTC-TTT-T-Lys-NH2
% Binding of 32P-oligo to PNA-Sepharose [8]: 50%
% Binding of 32P-oligo to PNA-Sepharose [9]: 45%
% Binding of 32P-oligo to PNA-Sepharose [11]: 13%
Tm, Medium Salt [2]: 57.5 °C
Tm, Medium Salt [4]: 72.0 °C
Tm, High Salt [4]: 72.5 °C
Tm, Low Salt [4]: 74.5 °C
Tm, Medium Salt [5]: 58.0 °C

TTT-TTT-TT-Lys-NH2 [b]
Tm of PNA/DNA complex [12]: 60 °C
Tm, Medium Salt ([13]; 140 mM NaCl): 51.5 °C
Tm, High Salt ([13]; 500 mM NaCl): 50.0 °C
Tm, Low Salt ([13]; no sodium chloride): 56.0 °C

TTT-TTT-TTT-T-Lys-NH2 [H-T10-LysNH2]
Tm of PNA/DNA complex [12]: > 70 °C
melting temperature of hybrid [14]: > 90 C
% Binding of 32P-oligo to PNA-Sepharose [8]: 11%
% Binding of 32P-oligo to PNA-Sepharose [9]: 11%
% Binding of 32P-oligo to PNA-Sepharose [10]: 51%
% Binding of 32P-oligo to PNA-Sepharose [11]: 11%
Tm, Medium Salt [2]: 47.0 °C
binding to the corresponding dA10 [7]: very efficient binding
A260 After Mixing ([15]; A260 before mixing 0.600): 0.389
A260 After Mixing and Heating [15, 20]: 0.360
A260 After Mixing ([16]; A260 before mixing 0.600): 0.514
A260 After Mixing and Heating [16, 20]: 0.517
A260 After Mixing ([17]; A260 before mixing 0.600): 0.540
A260 After Mixing and Heating [17, 20]: 0.532
A260 After Mixing ([18]; A260 before mixing 0.600): 0.538
A260 After Mixing and Heating [18, 20]: 0.528
Tm ([3]; Example 55): 73 °C and 73 °C °C
Tm ([3]; Example 61): 73 °C °C
Tm, Medium Salt [3]: 72.5 °C
Tm, High Salt [3]: 73.0 °C
Tm, Low Salt [3]: 73.0 °C
Tm, Medium Salt [4]: 59.0 °C
Tm, High Salt [4]: 61.5 °C
Tm, Low Salt [4]: 60.0 °C
Tm, Medium Salt [5]: 46.0 °C
transcription of RNA ([19]; PNA bound to the non-transcribed strand (pT10KS)): not arrested
transcription of RNA ([19]; PNA bound to the transcribed strand (pA10KS)): arrested at the PNA binding site
